Source: patent US11708344B2, “Flavone derivatives for the treatment and prophylaxis of hepatitis B virus disease” (Hoffmann-La Roche Inc., priority 2018, dated 2023)
Like-named read-outs stand apart in the source and are kept apart here.

Assays:
[1] = Human microsome stability assay; assay type: in vitro ADME; conditions: human liver microsomes, 1 μM test compound, 0.5 mg/mL microsomal protein, 37° C., pH 7.4, 0-30 minutes
Method in brief: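 Compound (1 μM) incubated at 37 °C with human liver microsomes (0.5 mg/mL protein) in 100 mM potassium phosphate, pH 7.4, after 10 min preincubation; started with NADPH regenerating system. Sampled at 0–30 min, quenched with cold ACN; remaining parent quantified by LC-MS/MS, with no-NADPH controls.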

[2] = test system: HBeAg (surrogate marker for cccDNA) in HepDES19 cells; assay: Engineered HepDES19 primary screen assay (HBeAg ELISA); assay type: cell-based, HBV
Method in brief: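 HepDES19 cells were induced by Tet withdrawal for 8 days, then treated with half-log compound dilutions (1% DMSO final) for 5 days at 37 °C. HBeAg was measured by ELISA as the cccDNA surrogate, viability by CCK-8, and IC50 from a 4-parameter logistic fit.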

[3] = Hepatitis B virus, HepDES19, 120 h, read-out: IC50 (HBeAg level, HepDES19 primary screen assay), HepDES19 cells, 5 days compound incubation, HBeAg ELISA

SMILES | Clearance of Human microsome [1] [L/h/kg] | IC50 [2, 3] [µM] | IC50 ([2]; read-out: IC50 (HBeAg level, HepDES19 primary screen assay), HepDES19 cells, 5 days compound incubation, HBeAg ELISA) [µM]
O=C(O)[C@@H]1C[C@H](Oc2cc(C(F)(F)F)ccc2-c2cc(=O)c3cccc(Cl)c3o2)CN1S(=O)(=O)C1CC1 [Example B078, (2S,4S)-4-[2-(8-chloro-4-oxo-chromen-2-yl)-5-(trifluoromethyl)phenoxy]-1-cyclopropylsulfonyl-pyrrolidine-2-carboxylic acid] | 0.369 | 0.541 | –
O=c1cc(-c2ccccc2OCCO[C@H]2C[C@H](C(=O)O)C2)oc2c(Br)cccc12 [Example C046-B, Trans-3-[2-[2-(8-bromo-4-oxo-chromen-2-yl)phenoxy]ethoxy]cyclobutanecarboxylic acid] | 0.369 | – | 0.251
COc1c(-c2ccc(Br)cc2OCCO[C@H]2C[C@@H](C(=O)O)C2)oc2c(Cl)cccc2c1=O [Example C101, Cis-3-[2-[5-bromo-2-(8-chloro-3-methoxy-4-oxo-chromen-2-yl)phenoxy]ethoxy]cyclobutanecarboxylic acid] | 0.369 | 2.38 | –
COc1c(-c2ccc(C(F)(F)F)cc2OCCC(=O)O)oc2c(Cl)cccc2c1=O [Example A047, 3-[2-(8-chloro-3-methoxy-4-oxo-chromen-2-yl)-5-(trifluoromethyl)phenoxy]propanoic acid] | 0.369 | 1.83 | –
Cc1c(-c2ccc(C(F)(F)F)cc2OCCC(=O)O)oc2c(Cl)cccc2c1=O [Example A034, 3-[2-(8-chloro-3-methyl-4-oxo-chromen-2-yl)-5-(trifluoromethyl)phenoxy]propanoic acid] | 0.369 | 13.4 | –
O=c1cc(-c2ccc(Br)cc2OCCO[C@H]2C[C@@H](C(=O)O)C2)oc2c(Cl)cc(F)cc12 [Example C028, Cis-3-[2-[5-bromo-2-(8-chloro-6-fluoro-4-oxo-chromen-2-yl)phenoxy]ethoxy]cyclobutanecarboxylic acid] | 0.531 | 3.32 | –
O=C(O)CCOc1cc(OC(F)(F)F)ccc1-c1cc(=O)c2ccc(C(F)(F)F)c(Cl)c2o1 [Example A042, 3-[2-[8-chloro-4-oxo-7-(trifluoromethyl)chromen-2-yl]-5-(trifluoromethoxy)phenoxy]propanoic acid] | 0.369 | 17.8 | –
COc1cc(-c2cc(=O)c3cccc(Cl)c3o2)c(OCCO[C@H]2C[C@@H](C(=O)O)C2)cc1O [Example C076, Cis-3-[2-[2-(8-chloro-4-oxo-chromen-2-yl)-5-hydroxy-4-methoxy-phenoxy]ethoxy]cyclobutanecarboxylic acid] | 0.369 | 0.502 | –
O=c1cc(-c2cccc(F)c2OCCO[C@H]2C[C@H](C(=O)O)C2)oc2c(Cl)cccc12 [Example C037-B, Trans-3-[2-[2-(8-chloro-4-oxo-chromen-2-yl)-6-fluoro-phenoxy]ethoxy]cyclobutanecarboxylic acid] | 0.369 | 0.531 | –
O=C(COCCOc1cc(C(F)(F)F)ccc1-c1cc(=O)c2cccc(Cl)c2o1)NS(=O)(=O)C1CC1 [Example C118, 2-[2-[2-(8-chloro-4-oxo-chromen-2-yl)-5-(trifluoromethyl)phenoxy]ethoxy]-N-cyclopropylsulfonyl-acetamide] | 0.369 | 14.7 | –
Cc1ccc(OCCO[C@H]2C[C@@H](C(=O)O)C2)c(-c2cc(=O)c3cccc(Cl)c3o2)c1 [Example C050-A, Cis-3-[2-[2-(8-chloro-4-oxo-chromen-2-yl)-4-methyl-phenoxy]ethoxy]cyclobutanecarboxylic acid] | 0.369 | 15.6 | –
O=C(O)COCCCOc1cc(C(F)(F)F)ccc1-c1cc(=O)c2cccc(Cl)c2o1 [Example C001, 2-[3-[2-(8-chloro-4-oxo-chromen-2-yl)-5-(trifluoromethyl)phenoxy]propoxy]acetic acid] | 0.369 | 3.05 | –
Cc1cc(-c2cc(=O)c3cccc(Cl)c3o2)c(OCC(C)(C)C(=O)O)cc1Cl [Example A064, 3-[5-chloro-2-(8-chloro-4-oxo-chromen-2-yl)-4-methyl-phenoxy]-2,2-dimethyl-propanoic acid] | 0.57 | 9.59 | –
O=C(O)[C@H]1CCN(C(=O)COCCOc2cc(Br)ccc2-c2cc(=O)c3cccc(Cl)c3o2)C1 [Example C112, (3S)-1-[2-[2-[5-bromo-2-(8-chloro-4-oxo-chromen-2-yl)phenoxy]ethoxy]acetyl]pyrrolidine-3-carboxylic acid] | 0.369 | 11.4 | –
COc1cc(OCCO[C@H]2C[C@@H](C(=O)O)C2)c(-c2cc(=O)c3cccc(Cl)c3o2)cc1OC [Example C072, Cis-3-[2-[2-(8-chloro-4-oxo-chromen-2-yl)-4,5-dimethoxy-phenoxy]ethoxy]cyclobutanecarboxylic acid] | 0.369 | 6.31 | –
CC(C)(CCCOc1cc(OC(F)(F)F)ccc1-c1cc(=O)c2cccc(Cl)c2o1)C(=O)O [Example A071, 5-[2-(8-chloro-4-oxo-chromen-2-yl)-5-(trifluoromethoxy)phenoxy]-2,2-dimethyl-pentanoic acid] | 0.444 | 6.46 | –
O=c1cc(-c2cc(Cl)c(Br)cc2OCCO[C@H]2C[C@@H](C(=O)O)C2)oc2c(Cl)cccc12 [Example C057-A, Cis-3-[2-[5-bromo-4-chloro-2-(8-chloro-4-oxo-chromen-2-yl)phenoxy]ethoxy]cyclobutanecarboxylic acid] | 0.48 | 5.01 | –
O=C(O)[C@H]1CCCN1C(=O)CCOc1cc(Br)ccc1-c1cc(=O)c2cccc(Cl)c2o1 [Example A075, (2R)-1-[3-[5-bromo-2-(8-chloro-4-oxo-chromen-2-yl)phenoxy]propanoyl]pyrrolidine-2-carboxylic acid] | 0.369 | 2.85 | –
O=c1cc(-c2ccc(N3CCCC3)cc2OCCO[C@H]2C[C@@H](C(=O)O)C2)oc2c(Cl)cccc12 [Example C068, cis-3-[2-[2-(8-chloro-4-oxo-chromen-2-yl)-5-pyrrolidin-1-yl-phenoxy]ethoxy]cyclobutanecarboxylic acid] | 0.369 | 4.74 | –
O=C(COc1cc(C(F)(F)F)ccc1-c1cc(=O)c2cccc(Cl)c2o1)NCCO [Example A086, 2-[2-(8-chloro-4-oxo-chromen-2-yl)-5-(trifluoromethyl)phenoxy]-N-(2-hydroxyethyl)acetamide] | 0.581 | 1 | –
CN1C(=O)C(C)(C)c2cc(OCCO[C@H]3C[C@@H](C(=O)O)C3)c(-c3cc(=O)c4cccc(Cl)c4o3)cc21 [Example C093, Cis-3-[2-[6-(8-chloro-4-oxo-chromen-2-yl)-1,3,3-trimethyl-2-oxo-indolin-5-yl]oxyethoxy]cyclobutanecarboxylic acid] | 0.369 | 7.79 | –
O=c1cc(-c2cc(C(F)(F)F)c(Br)cc2OCCO[C@H]2C[C@@H](C(=O)O)C2)oc2c(Cl)cccc12 [Example C042-A] | 0.454 | 12.7 | –
